Assay results from ChEMBL document CHEMBL4765285, “Discovery of orally active indirubin-3'-oxime derivatives as potent type 1 FLT3 inhibitors for acute myeloid leukemia” (Eur J Med Chem, 2020).
Active and inactive are the calls of the source. The calls are words filed in the database; no cut-off is given here.

What was measured:
[1] = molecular target: High affinity nerve growth factor receptor (Homo sapiens, UniProt P04629); assay: Inhibition of human TrkA in presence of ATP
MOLM-14 [2] = assay: cells; settings: Homo sapiens
Description: Antiproliferative activity against wild type human MOLM14 cells assessed as cell growth inhibition by MTT assay

MOLM-14 [3] = assay: cells; settings: Homo sapiens; remark: listed apart in the source
Description: Antiproliferative activity against human MOLM14 cells harboring ITD mutant assessed as cell growth inhibition by MTT assay

[4] = molecular target: Receptor-type tyrosine-protein kinase FLT3 (Homo sapiens, UniProt P36888, ITD); assay: Binding affinity to human FLT3 ITD mutant in presence of ATP by Lanthascreen Eu kinase binding assay
[5] = molecular target: Receptor-type tyrosine-protein kinase FLT3 (Homo sapiens) (UniProt P36888); assay: Inhibition of FLT3 in human MV4-11 cells assessed as reduction in STAT5 phosphorylation at 10 nM incubated for 4 hrs by Western blot analysis; assay type: cell-based
[6] = molecular target: T1, Maternal embryonic leucine zipper kinase (Homo sapiens, UniProt Q14680); assay: Inhibition of human MELK in presence of ATP
[7] = molecular target: Platelet-derived growth factor receptor alpha (Homo sapiens) (UniProt P16234); assay: Inhibition of human PDGFRa at 100 nM in presence of ATP relative to control
Sequence of Platelet-derived growth factor receptor alpha (Homo sapiens) (P16234 whole entry): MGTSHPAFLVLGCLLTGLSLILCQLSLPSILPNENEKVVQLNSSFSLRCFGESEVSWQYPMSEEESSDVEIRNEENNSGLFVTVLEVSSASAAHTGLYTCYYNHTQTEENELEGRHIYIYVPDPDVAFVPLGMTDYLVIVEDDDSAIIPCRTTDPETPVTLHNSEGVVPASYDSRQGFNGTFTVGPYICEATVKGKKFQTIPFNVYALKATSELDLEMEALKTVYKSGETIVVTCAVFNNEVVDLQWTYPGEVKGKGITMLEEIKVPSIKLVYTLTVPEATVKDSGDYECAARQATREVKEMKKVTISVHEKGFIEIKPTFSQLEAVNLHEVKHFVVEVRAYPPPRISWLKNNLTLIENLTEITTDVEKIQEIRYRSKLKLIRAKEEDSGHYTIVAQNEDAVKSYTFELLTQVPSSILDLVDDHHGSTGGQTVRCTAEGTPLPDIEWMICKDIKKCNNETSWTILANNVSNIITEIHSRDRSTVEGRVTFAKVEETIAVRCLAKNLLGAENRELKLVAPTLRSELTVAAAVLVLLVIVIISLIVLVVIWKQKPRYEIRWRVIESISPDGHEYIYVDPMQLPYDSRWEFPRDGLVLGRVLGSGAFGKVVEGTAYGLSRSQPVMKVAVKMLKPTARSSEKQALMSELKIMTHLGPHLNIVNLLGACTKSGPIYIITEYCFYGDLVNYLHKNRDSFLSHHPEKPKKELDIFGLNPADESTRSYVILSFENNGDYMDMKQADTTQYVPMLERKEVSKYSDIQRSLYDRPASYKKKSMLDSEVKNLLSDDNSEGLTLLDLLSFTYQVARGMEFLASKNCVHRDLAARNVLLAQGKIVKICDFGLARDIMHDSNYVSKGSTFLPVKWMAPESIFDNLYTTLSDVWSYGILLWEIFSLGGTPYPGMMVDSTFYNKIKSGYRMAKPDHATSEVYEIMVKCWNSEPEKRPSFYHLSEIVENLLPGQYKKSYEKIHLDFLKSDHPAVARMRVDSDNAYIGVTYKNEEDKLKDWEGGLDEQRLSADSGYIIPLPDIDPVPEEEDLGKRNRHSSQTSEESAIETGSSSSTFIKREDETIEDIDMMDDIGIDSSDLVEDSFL

MV4-11 = assay: Antitumor activity against human MV4-11 cells xenografted in BALB/c nu/nu mouse assessed as reduction in tumor volume at 20 mg/kg, po administered once daily for 21 days measured twice daily during compound dosing; assay type: functional, organism-based; settings: time 21.0 day
[8] = molecular target: Macrophage colony-stimulating factor 1 receptor (Homo sapiens, UniProt P07333); assay: Inhibition of human FMS in presence of ATP
Sequence of Macrophage colony-stimulating factor 1 receptor (P07333 whole entry): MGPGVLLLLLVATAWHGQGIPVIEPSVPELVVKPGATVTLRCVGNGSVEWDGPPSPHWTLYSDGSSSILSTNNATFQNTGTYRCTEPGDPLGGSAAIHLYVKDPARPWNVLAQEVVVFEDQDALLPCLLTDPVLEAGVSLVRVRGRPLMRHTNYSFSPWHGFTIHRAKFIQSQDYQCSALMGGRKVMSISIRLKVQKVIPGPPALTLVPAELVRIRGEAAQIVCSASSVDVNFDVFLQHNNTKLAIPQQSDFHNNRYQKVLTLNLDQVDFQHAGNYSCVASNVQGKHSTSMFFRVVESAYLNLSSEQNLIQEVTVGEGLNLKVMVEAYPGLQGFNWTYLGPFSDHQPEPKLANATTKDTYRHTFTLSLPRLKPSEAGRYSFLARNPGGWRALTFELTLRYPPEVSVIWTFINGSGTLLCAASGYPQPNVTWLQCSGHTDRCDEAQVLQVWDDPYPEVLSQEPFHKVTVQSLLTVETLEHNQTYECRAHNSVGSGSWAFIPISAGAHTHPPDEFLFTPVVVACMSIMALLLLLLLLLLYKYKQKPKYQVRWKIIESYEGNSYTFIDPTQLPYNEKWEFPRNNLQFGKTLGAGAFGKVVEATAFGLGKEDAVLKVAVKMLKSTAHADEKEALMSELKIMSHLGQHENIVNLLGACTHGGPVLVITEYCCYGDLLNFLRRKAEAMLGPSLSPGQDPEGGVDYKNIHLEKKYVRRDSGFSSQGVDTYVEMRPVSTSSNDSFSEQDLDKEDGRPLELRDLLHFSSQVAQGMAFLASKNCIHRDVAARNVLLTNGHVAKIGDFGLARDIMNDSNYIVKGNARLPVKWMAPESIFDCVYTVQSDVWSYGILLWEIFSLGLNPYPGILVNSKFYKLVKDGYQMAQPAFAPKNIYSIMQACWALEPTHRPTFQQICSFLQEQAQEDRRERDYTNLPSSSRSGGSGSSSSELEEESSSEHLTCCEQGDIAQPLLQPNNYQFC

[9] = molecular target: Mast/stem cell growth factor receptor Kit (Homo sapiens) (UniProt P10721); assay: Inhibition of human c-KIT at 100 nM in presence of ATP relative to control
Sequence of Mast/stem cell growth factor receptor Kit (Homo sapiens) (P10721 whole entry): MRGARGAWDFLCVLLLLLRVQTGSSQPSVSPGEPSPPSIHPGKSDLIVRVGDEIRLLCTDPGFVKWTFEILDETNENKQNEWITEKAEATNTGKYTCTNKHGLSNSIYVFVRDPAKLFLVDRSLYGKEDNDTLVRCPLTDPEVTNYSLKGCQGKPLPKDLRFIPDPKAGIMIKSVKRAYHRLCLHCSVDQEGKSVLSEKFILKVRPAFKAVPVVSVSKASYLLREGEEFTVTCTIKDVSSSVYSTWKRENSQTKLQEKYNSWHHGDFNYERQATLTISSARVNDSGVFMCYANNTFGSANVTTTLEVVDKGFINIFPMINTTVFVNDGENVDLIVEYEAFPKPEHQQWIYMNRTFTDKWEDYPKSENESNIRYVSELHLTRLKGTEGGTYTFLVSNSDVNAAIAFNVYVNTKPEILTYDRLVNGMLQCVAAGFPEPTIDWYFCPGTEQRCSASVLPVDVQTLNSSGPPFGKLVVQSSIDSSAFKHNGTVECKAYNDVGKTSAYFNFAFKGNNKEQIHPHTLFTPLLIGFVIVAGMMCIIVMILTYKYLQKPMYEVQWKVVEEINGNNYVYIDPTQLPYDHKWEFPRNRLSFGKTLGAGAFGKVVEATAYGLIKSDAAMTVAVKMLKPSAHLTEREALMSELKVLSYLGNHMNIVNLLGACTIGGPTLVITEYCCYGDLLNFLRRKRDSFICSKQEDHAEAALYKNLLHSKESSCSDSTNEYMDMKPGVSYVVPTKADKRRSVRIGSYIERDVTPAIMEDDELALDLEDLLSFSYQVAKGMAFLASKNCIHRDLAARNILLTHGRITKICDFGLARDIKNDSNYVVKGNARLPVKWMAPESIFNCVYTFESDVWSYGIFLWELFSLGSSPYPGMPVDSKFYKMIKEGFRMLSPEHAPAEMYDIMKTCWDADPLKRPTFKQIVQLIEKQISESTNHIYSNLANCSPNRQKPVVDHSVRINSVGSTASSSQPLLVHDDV

[10] = Toxicity in BALB/c nu/nu mouse xenografted with human MV4-11 cells assessed as body weight loss at 20 mg/kg, po administered for 21 days; assay type: organism-based; settings: in vivo, 504 h, time 21 day
[11] = molecular target: Tyrosine-protein kinase Mer (Homo sapiens, UniProt Q12866); assay: Inhibition of human MER in presence of ATP
Sequence of Tyrosine-protein kinase Mer (Q12866 whole entry): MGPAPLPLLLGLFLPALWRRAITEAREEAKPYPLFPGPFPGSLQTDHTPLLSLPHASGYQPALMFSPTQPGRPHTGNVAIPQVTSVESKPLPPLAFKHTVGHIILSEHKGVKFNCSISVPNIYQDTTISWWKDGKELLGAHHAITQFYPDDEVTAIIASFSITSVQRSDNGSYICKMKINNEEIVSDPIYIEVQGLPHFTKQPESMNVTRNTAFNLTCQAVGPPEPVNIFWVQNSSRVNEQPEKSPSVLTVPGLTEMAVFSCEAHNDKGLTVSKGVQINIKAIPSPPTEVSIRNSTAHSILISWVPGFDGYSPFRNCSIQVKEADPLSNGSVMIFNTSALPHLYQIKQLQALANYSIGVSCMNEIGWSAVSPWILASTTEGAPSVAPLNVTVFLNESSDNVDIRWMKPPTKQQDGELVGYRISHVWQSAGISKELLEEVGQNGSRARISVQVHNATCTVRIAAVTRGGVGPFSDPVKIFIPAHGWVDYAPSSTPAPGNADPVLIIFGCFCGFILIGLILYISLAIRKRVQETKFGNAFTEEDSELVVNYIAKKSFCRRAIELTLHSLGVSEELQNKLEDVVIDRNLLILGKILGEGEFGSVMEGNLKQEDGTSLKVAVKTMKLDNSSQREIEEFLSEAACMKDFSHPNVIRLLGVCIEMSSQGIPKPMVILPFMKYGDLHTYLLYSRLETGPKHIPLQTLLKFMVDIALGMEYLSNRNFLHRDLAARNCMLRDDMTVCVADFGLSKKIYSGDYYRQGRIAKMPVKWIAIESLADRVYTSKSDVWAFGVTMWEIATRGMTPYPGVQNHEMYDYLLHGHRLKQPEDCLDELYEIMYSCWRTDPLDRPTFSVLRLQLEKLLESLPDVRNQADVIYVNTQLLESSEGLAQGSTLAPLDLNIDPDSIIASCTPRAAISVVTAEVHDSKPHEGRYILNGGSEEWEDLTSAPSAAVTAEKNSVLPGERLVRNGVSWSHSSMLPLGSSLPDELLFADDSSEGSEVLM

[12] = molecular target: T1, Maternal embryonic leucine zipper kinase; assay: Inhibition of human MELK at 100 nM in presence of ATP relative to control
MOLM-14 [13] = assay: cells; settings: Homo sapiens; remark: listed apart in the source
Description: Antiproliferative activity against human MOLM14 cells harboring ITD/D835Y mutant assessed as cell growth inhibition by MTT assay

Sequence of High affinity nerve growth factor receptor (P04629 whole entry): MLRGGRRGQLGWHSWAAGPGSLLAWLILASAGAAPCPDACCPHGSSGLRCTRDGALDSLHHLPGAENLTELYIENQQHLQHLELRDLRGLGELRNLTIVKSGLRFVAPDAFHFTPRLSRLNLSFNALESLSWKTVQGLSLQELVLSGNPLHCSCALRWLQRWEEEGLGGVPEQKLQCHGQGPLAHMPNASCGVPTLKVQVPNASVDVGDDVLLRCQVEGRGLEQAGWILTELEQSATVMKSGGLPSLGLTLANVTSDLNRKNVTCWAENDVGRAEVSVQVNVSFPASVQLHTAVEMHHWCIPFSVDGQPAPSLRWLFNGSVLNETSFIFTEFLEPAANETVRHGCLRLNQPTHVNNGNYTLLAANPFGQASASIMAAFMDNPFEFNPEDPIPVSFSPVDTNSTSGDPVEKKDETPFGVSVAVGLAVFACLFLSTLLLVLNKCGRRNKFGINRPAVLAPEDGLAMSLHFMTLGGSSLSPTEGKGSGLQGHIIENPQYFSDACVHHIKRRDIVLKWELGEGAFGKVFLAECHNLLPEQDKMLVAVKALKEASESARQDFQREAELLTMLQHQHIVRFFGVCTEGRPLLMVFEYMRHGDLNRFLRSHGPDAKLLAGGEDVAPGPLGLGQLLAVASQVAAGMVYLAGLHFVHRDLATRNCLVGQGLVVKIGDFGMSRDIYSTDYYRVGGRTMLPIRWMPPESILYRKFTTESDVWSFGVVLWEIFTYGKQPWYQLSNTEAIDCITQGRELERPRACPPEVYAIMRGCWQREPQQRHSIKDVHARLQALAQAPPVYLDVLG

Question: Which results are given for `Cl.O=C1Nc2ccc(F)cc2/C1=C1/Nc2ccccc2/C1=N\OCCN1CCNCC1`?
Answer: IC50 [1]: 6.89 nM; GI50 (MOLM-14 [2]): 4.88 nM; GI50 (MOLM-14 [3]): 1.85 nM; Kd [4]: < 0.25 nM; inhibition [5]: 100%; IC50 [6]: 5.54 nM; inhibition [7]: 5%; Activity (MV4-11): Active; IC50 [8]: 4.2 nM; inhibition [9]: 22%; Activity [10]: Non-Toxic; IC50 [11]: 3.01 nM; inhibition [12]: 86%; GI50 (MOLM-14 [13]): 1.87 nM
